In patent publication US20120321694A1, “COMPOSITIONS AND USES” (priority 2010, published 2012):
Where no end group is shown, it is not given here.

Columns and labels:
[1] = system: APPSwe/PS1 mice; experiment: T-water maze; format: in vivo; settings: for T-water maze, spatial memory: Example 21, twelve weekly injections, 3D MPL 50 μg, CRX527 20 μg, CRX601 20 μg i.p., AS01B 1/10th human dose i.m., vs non treated, FIG. 24
Method: Five groups of APPSwe/PS1 mice received one a week for a period of 12 weeks the following treatment: • Gr1: APPSwe/PS1+NaCl 0.9% n(=20), i.p. injections • Gr4: APPSwe/PS1+CRX527 (20 μg/mouse, 130 μl, n=10), i.p. injections • Gr5: APPSwe/PS1+CRX601 (20 μg/mouse, 130 μl, n=10), i.p. injections • Gr6: APPSwe/PS1+3D MPL (50 μg/mouse, 130 μl, n=10), i.p. injections • Gr8 APPSwe/PS1+AS15 ( 1/10th of human dose, 50 μl, n=10), i.m. injections • Gr9: APPSwe/PS1+AS01B ( 1/10th of human dose, 50 μl, n=10), i.m. injections
Mice were tested during the “light on” phase of the day. Behavioral experimenter was blinded to the genetic and treatment status of animals. To assess hippocampal-dependent spatial learning and memory, mice were trained in the T-water maze task. In this paradigm, we evaluate the mouse's ability to remember the spatial location of submerged platform. The T-maze apparatus (length of stem, 64 cm; length of arms, 30 cm; width, 12 cm; height of walls, 16 cm) was made of clear fiberglass and filled with water (23±1° C.) at a height of 12 cm. A platform (11×11 cm) was placed at the end of the target arm and was submerged 1 cm below the surface. The acquisition phase allows to evaluate animals for left-right spatial learning. During the first two trials, platforms were placed on each arms of the maze to test the spontaneous turning preference of the mouse. After these two trials, the least chosen arm was reinforced by the escape platform. The mice were placed in the stem of the T-maze and choose to swim either left or right until they found the submerged platform and escape to it, to a maximum of 60 s. After reaching the platform, the mice remained on it for 20 s and then were immediately placed back in the maze. […] Repeated trials were presented on the same day up to a maximum of 48 trials. A rest period of at least 10-15 min intervened between each block of 10 trials. A mouse was considered to have learned the task when it made no errors in a block of five consecutive trials. The reversal learning phase was then conducted 48 h later. During this phase, the same protocol was repeated, except that the mice were trained to find the escape platform on the opposite side to that on which they had learned on acquisition phase. The number of trials to reach the criterion (five of five correct choices made on consecutive trials) was measured as well as the latency to find the escape platform.

[2] = system: CD11b+ peripheral blood monocytes; experiment: Ex vivo uptake assay of Aβ1-42 by peripheral blood monocytes; format: cell-based, C57BL/6 mice
Method: (§1) Red blood cell lysis was performed twice on pooled blood with Ammonium Chloride-based Buffer (Sigma, Steinheim, Germany) and cells were counted with the EasyCount™ System (Immunicon).
(§2) Cells were finally washed twice and fixed for 15 min. with a 2% paraformaldehyde solution in PBS. FMOs controls were always included in the assays.
as §1

[3] = system: Lineage- CD11b+ monocytes in peripheral blood; experiment: Monocyte analysis and counting after adjuvant injection in mice; format: in vivo, C57BL/6 mice
Method: (§3) 24-Hours after injection of the TLR adjuvants, peripheral blood was drawn from C57BL/6 mice via cardiac puncture with lithium-heparin as anticoagulant. Red blood cell lysis was performed twice on pooled blood with Ammonium Chloride-based Buffer (Sigma, Steinheim, Germany) and cells were counted with the EasyCount™ System (Immunicon). […] Cells were finally washed three times and fixed for 15 min. with a 2% paraformaldehyde solution in PBS. Fluorescence minus one (FMO) controls were always included in the assays for fluorescent compensation setting. Samples were acquired on a flow cytometer (BD FACSCanto II) and data analyzed with the FACSDiva software (BD Biosciences). Monocytes were identified by their Side/Forward scatter properties and gated as CD3-/CD45R/B220-/Ly-6G-/NK1.1-(Lineage-)/CD11b+ cells. CD11b+ monocyte frequency was reported as a percentage of the total cells excluding debris.
as §3, with “24 hours” for “24-Hours”, “each immunomodulator,” for “the TLR adjuvants,”, “min” for “min.”, “monocytes” for “monocyte”
(§4) Cells were finally washed twice and fixed for 15 min. with a 2% paraformaldehyde solution in PBS. FMOs controls were always included in the assays. Samples were acquired on a flow cytometer (BD FACSCanto II) and data analyzed with the FACSDiva software (BD Biosciences). Monocytes were identified and counted by their Side/Forward scatter properties, excluding debris and gated as CD3-/CD45R/B220-/Ly-6G-/NK1.1-(Lineage-)/CD11b+ cells.

[4] = system: CD11b+ peripheral blood monocytes; experiment: In vivo uptake assay of Aβ42 after immunization or passive immunotherapy; parameters: species or system C57BL/6 mice; settings: FIG. 22
Method: as §2, §4

[5] = system: human microglial cell line CHME; experiment: Phagocytosis of Aβ1-42 by CHME microglial cell line; format: cell-based; settings: FIG. 18
Method: Phagocytosis of beta-amyloid 1-42 peptide by the human microglial cell line CHME was observed after the addition of TLR2 agonist containing adjuvants Protollin and Pam3CysLip peptide. […] The synthetic peptide sequence of the Pam3Cys Lip peptide is described herein: Pam3Cys—SQ EPAAPAAEAT PAAEAP. Protollin was used at concentration 1 ug per ml based on the LPS content from Shigella flexneri. Pam3Cys lip peptide was used at concentration of 5 ug per ml of the pure tri-palmitoylated peptide.
Additionally, cells were imaged using 42 HiLyte 488 Fluo (Anaspec, Inc.) at 2 ug per ml in DMEM complete media (Invitrogen). Lysotracker red staining was performed and slides were mounted and co-stained with DAPI to show the nucleus (blue). […] Lysotracker red reagent was purchased from Invitrogen and used as manufacturer recommendations.

`CCCCCCCCCCC[C@H](CC(=O)N[C@H]1[C@H](OC[C@H](NC(=O)C[C@@H](CCCCCCCCCCC)OC(=O)CCCCCCCCC)C(=O)O)O[C@H](CO)[C@@H](OP(=O)(O)O)[C@@H]1OC(=O)C[C@@H](CCCCCCCCCCC)OC(=O)CCCCCCCCC)OC(=O)CCCCCCCCC` [CRX527] was tested, and the “T-water maze, spatial memory” value [1] was “spatial memory improvement” and the “T-water maze, spatial memory” value ([1]; listed as CRX 527) was “significant improvements in behaviour”.

In the case of `CCCCCCCCCCC[C@H](CC(=O)N[C@H]1[C@H](OC[C@H](NC(=O)C[C@@H](CCCCCCCCCCC)OCCCCCCCCCC)C(=O)O)O[C@H](CO)[C@@H](OP(=O)(O)O)[C@@H]1OC(=O)C[C@@H](CCCCCCCCCCC)OCCCCCCCCCC)OCCCCCCCCCC` [CRX601], the “ex vivo uptake of Aβ42 by peripheral blood monocytes” value ([2]; i.m. AS01B mouse full dose (5 ug per mouse) or CRX601 2 μg, vs PBS group, FIG. 14) is reported as “uptake an higher amount of Aβ42”, the “T-water maze, spatial memory” value [1] is reported as “spatial memory improvement” and the “T-water maze, spatial memory” value ([1]; listed as CRX 601) is reported as “significant improvements in behaviour”. For the same compound, the “T-water maze, cognitive functions” value ([1]; Example 22, i.m., 12× weekly from 3 months old, CRX601 2 μg, CRX601 2 ug in AS03, 3D MPL 5 ug, AS01B 1/10 human dose, vs PBS, unpaired t-tests, FIG. 27A) was “significant improvement of their cognitive functions”, the “dose of maximum monocyte response” value ([3]; single i.m., 0.2-20 ug/mouse, FIG. 12) was 10 µg and the “dose enough to trigger an increase of the monocyte count” value ([3]; single i.m., 24 hrs, compared to PBS, FIG. 12) was 1 µg. For the same compound, the “effect on monocyte count at 20 μg dose” value ([3]; single i.m., FIG. 12) was “down modulated”, the “antibody-mediated Aβ uptake in peripheral blood monocytes” value (shortened to “antibody-mediated Aβ uptake”) ([4]; CRX601 at 20 ug when combined with AS03 emulsion) was “partially quenched” and the “antibody-mediated Aβ uptake” value ([4]; CRX601 at 20 ug, single i.m., plus 15 ug 2E7) was “triggers highest Aβ uptake”. The “antibody-mediated Aβ uptake” value ([4]; single i.m. injection of different doses plus 15 ug 2E7, Aβ Fluor i.v. 24 hr later) was “Dose-response observed”.

“Pam3Cys—SQ EPAAPAAEAT PAAEAP (Pam3Cys-SQEPAAPAAEATPAAEAP) [Pam3CysLip peptide, TLR2 agonist, tri-palmitoylated peptide from Neisseria meningitidis strain 8047]” was tested, and the “phagocytosis of beta-amyloid 1-42 peptide” value ([5]; 5 ug per ml, pre-incubation 18 hrs) was 86 % of cells and the amyloid phagocytic activity ([5]; Pam3CysLip peptide 5 ug per ml, Protollin 1 ug per ml (LPS content), compared to PBS) was “higher amyloid phagocytic activity”.

In the case of QS21 [reference compound], the “ex vivo Aβ42 uptake by peripheral blood monocytes” value ([2]; i.m. injection, 24 hrs, compared to PBS, QS21 (5 ug), liposomal MPL (5 ug) or MPL (5 ug), FIG. 20) is reported as “does not promote Aβ uptake”, the “number of monocytes, of total peripheral white blood cells” value ([3]; 24 hrs after single i.m. injection (5 μg QS21), FIG. 19A) is reported as 9.1% and the “activated Ly6C+ monocytes” value ([3]; 24 hrs after single i.m. injection (5 μg QS21), FIG. 19B) is reported as 75%.
